Data: ChEMBL document CHEMBL5543059, “Discovery of anti-inflammatory natural flavonoids: Diverse scaffolds and promising leads for drug discovery” (Eur J Med Chem, 2023)
Values after ≈ are worked out from the molar mass of the structure shown. One block for each compound: values may come before it.

What was measured:
J774.A1 [1] = experiment: Anti-inflammatory activity against mouse J774.A1 cells assessed as inhibition of LPS-induced IL-1beta mRNA expression level pretreated for 30 mins followed by LPS-induction and measured after 6 hrs by RT-PCR analysis; assay type: functional, cell-based
RAW264.7 [2] = experiment: Anti-inflammatory activity against mouse RAW264.7 cells assessed as inhibition of LPS-induced IL-1beta mRNA expression level pretreated for 30 mins followed by LPS-induction and measured after 6 hrs by RT-PCR analysis; assay type: functional, cell-based
BV-2 [3] = experiment: Anti-inflammatory activity against mouse BV-2 cells assessed as inhibition of LPS-induced IL-1beta secretion at 25 uM pretreated for 2 hrs followed stimulated with LPS for 22 hrs by ELISA analysis relative to control; assay type: functional; design: scale not given: the % may be the effect or the level left; details: time 24 hrs
RAW264.7 [4] = experiment: Antiinflammatory activity in mouse RAW264.7 cells assessed as reduction in iNOS protein expression at 5 to 40 uM relative to control; assay type: functional; design: scale not given: the % may be the effect or the level left; details: dose 5-40 µM
Rattus norvegicus [5] = experiment: Antiinflammatory activity in LPS-induced Sprague-Dawley rat assessed as reduction in IL-1beta production in plasma at 20 mg/kg, ip pretreated for 30 mins followed by LPS induction measured after 4 hrs by ELISA method relative to control; assay type: functional; design: scale not given: the % may be the effect or the level left; details: time 4.5 hrs
RAW264.7 [6] = experiment: Antiinflammatory activity in LPS-induced mouse RAW264.7 cells assessed as reduction in IL-1beta production pretreated for 30 mins followed by LPS induction measured after 2 hrs by ELISA method; assay type: functional, cell-based
J774.A1 [7] = experiment: Antiinflammatory activity in LPS-induced mouse J774.A1 cells assessed as reduction in TNFalpha production pretreated for 30 mins followed by LPS induction measured after 2 hrs by ELISA method; assay type: functional, cell-based
Rattus norvegicus [8] = experiment: Antiinflammatory activity in LPS-induced Sprague-Dawley rat assessed as reduction in TNFalpha production in plasma at 20 mg/kg, ip pretreated for 30 mins followed by LPS induction measured after 4 hrs by ELISA method relative to control; assay type: functional; design: scale not given: the % may be the effect or the level left; details: time 4.5 hrs
RAW264.7 [9] = experiment: Antiinflammatory activity in LPS-induced mouse RAW264.7 cells assessed as reduction in TNFalpha production pretreated for 30 mins followed by LPS induction measured after 2 hrs by ELISA method; assay type: functional, cell-based
J774.A1 [10] = experiment: Antiinflammatory activity in LPS-induced mouse J774.A1 cells assessed as reduction in IL-1beta production pretreated for 30 mins followed by LPS induction measured after 2 hrs by ELISA method; assay type: functional, cell-based
RAW264.7 [11] = experiment: Anti-inflammatory activity in mouse RAW264.7 cells assessed as inhibition of LPS-induced NO production by Griess reagent assay; assay type: functional, cell-based
Peritoneal macrophage [12] = experiment: Antiinflammatory activity in mouse peritoneal macrophages assessed as reduction in LPS-induced TNFalpha level at 20 uM incubated for 4 hrs by ELISA method relative to control; assay type: functional; design: scale not given: the % may be the effect or the level left
Neutrophil = experiment: Inhibition of fMLF/CB-induced human Neutrophil activation assessed as reduction in elastase release using MeO-Suc-Ala-Ala-Pro-Val-pnitroanilide as substrate incubated for 5 mins; assay type: functional, cell-based
RAW264.7 [13] = experiment: Antiinflammatory activity in mouse RAW264.7 cells assessed as reduction in LPS-induced COX-2 expression after 24 hrs by Western blot analysis; assay type: functional, cell-based; details: RAW264.7, 24 h
RAW264.7 [14] = experiment: Antiinflammatory activity in mouse RAW264.7 cells assessed as reduction in LPS-induced iNOS expression after 24 hrs by Western blot analysis; assay type: functional, cell-based; details: RAW264.7, 24 h
THP-1 = experiment: Antiinflammatory activity in human THP-1 cells assessed as decrease in LPS-induced TNFalpha expression by Western blot analysis; assay type: functional, cell-based
B16-F10 = experiment: Antiinflammatory activity in mouse B16-F10 cells assessed as decrease in LPS-induced TNFalpha expression by Western blot analysis; assay type: functional, cell-based
Peritoneal macrophage [15] = experiment: Antiinflammatory activity against LPS-stimulated mouse peritoneal macrophage assessed as TNF-alpha level; assay type: functional, cell-based
BV-2 [16] = experiment: Anti-inflammatory activity in mouse BV-2 cells assessed as reduction in LPS-induced NO production pre-treated with compounds for 2 hrs followed by LPS-stimulation measured for 22 hrs by Griess reagent based analysis; assay type: functional, cell-based
BV-2 [17] = experiment: Antiinflammatory activity in mouse BV-2 cells assessed as reduction in LPS-induced NO production incubated for 24 hrs by microplate reader analysis; assay type: functional, cell-based; details: BV-2, 24 h
RAW264.7 [18] = experiment: Antiinflammatory activity in LPS-activated mouse RAW264.7 cells assessed as inhibition of ROS production at 10 uM relative to control; assay type: functional; design: scale not given: the % may be the effect or the level left
BV-2 [19] = experiment: Antiinflammatory activity in LPS-induced mouse BV-2 cells assessed as reduction in COX-2 protein expression by Western blot analysis; assay type: functional, cell-based
BV-2 [20] = experiment: Antiinflammatory activity in mouse BV-2 cells assessed as reduction in LPS-induced NO production pre-treated with compound for 1 hr followed by stimulated with LPS for 18 hrs by 2,3-diaminonaphthalene reagent based fluorescence analysis; assay type: functional, cell-based

SMILES: COc1cc(O)c(C(=O)/C=C/c2ccccc2)c(O)c1
IC50 (J774.A1 [1]): 42.8 µM
IC50 (RAW264.7 [2]): 43.1 µM

SMILES: COc1ccc(-c2cc(=O)c3c(O)cc(OC)c(O)c3o2)cc1
Activity (BV-2 [3]): >50%

SMILES: CC(C)=CCc1c([C@H]2Oc3cc(O)cc(O)c3C(=O)[C@@H]2O)cc2c(c1O)OC(C)(C)C=C2
Activity (RAW264.7 [4]): 42.8%

SMILES: COc1cc(O)c(CC=C(C)C)c2oc(=O)cc(-c3ccccc3)c12
Activity (Rattus norvegicus [5]): 55%
IC50 (RAW264.7 [6]): 29.2 µM
IC50 (J774.A1 [7]): 20.4 µM
Activity (Rattus norvegicus [8]): 41.8%
IC50 (RAW264.7 [9]): 21.3 µM
IC50 (J774.A1 [10]): 38.2 µM

SMILES: CC(C)=CCC[C@@]1(C)C=Cc2c(ccc(C(=O)/C=C/c3ccc(O)c(O)c3)c2O)O1
IC50 (RAW264.7 [11]): 22.7 µM

SMILES: Oc1cc(O)c2c(c1)O[C@H](c1cc(O)c(O)c(O)c1)CC2
Activity (Peritoneal macrophage [12]): 22.6%

SMILES: O=C(/C=C/c1ccc(O)cc1)c1ccc(O)cc1O [ISOLIQUIRITIGENIN]
IC50 (BV-2 [16]): 5.22 µM
IC50 (BV-2 [17]): 6.78 µM

SMILES: C=CC(C)(C)c1cc(/C=C/C(=O)c2ccc(O)cc2)c(OC)cc1O [LICOAGROCHACONE A]
Activity (RAW264.7 [18]): 80%
IC50 (BV-2 [19]): 0.625 µg/mL (≈ 1.85 µM)

Further lines, results first:

IC50 (Neutrophil): 6 µM
SMILES: Cc1c(O)cc2c(c1O)C(=O)[C@H](O)[C@@H](c1ccc(O)cc1)O2

IC50 (RAW264.7 [13]): 6.25 µg/mL (≈ 19.5 µM)
IC50 (RAW264.7 [14]): 6.25 µg/mL (≈ 19.5 µM)
SMILES: O=C1c2c(O)cc(O)cc2O[C@H](c2cc(O)c(O)c(O)c2)[C@H]1O [AMPELOPSIN]

IC50 (THP-1): 1.1 µM
IC50 (B16-F10): 0.6 µM
SMILES: COc1cc(O)cc(O)c1C(=O)/C=C/c1ccccc1 [CARDAMOMIN]

IC50 (Peritoneal macrophage [15]): 16.9 µM
SMILES: O=c1c(-c2ccc(O)cc2)coc2cc(O)cc(O)c12 [GENISTEIN]

IC50 (BV-2 [20]): 31.4 µM
SMILES: O=C1/C(=C/c2ccc(O)c(O)c2)Oc2cc(O)ccc21 [SULFURETIN]
